Drawing on patent US5753617A, “Peptide inhibitors of cellular adhesion” (Centocor, Inc., priority 1995, dated 1998), this text covers IC50 for 15 molecules.

Where a SMILES comes first, the peptide text is derived from it. Bridges are numbered along the chain shown (N, C = ends). [ ]: non-standard residue; d: D form. dPen = CC(C)(S)[C@@H](N)C(=O)O; Dap = NC[C@H](N)C(=O)O

The target in the assay is T1, P-selectin (Homo sapiens, UniProt P16109).
T1 construct: P-selectin is isolated from human platelet lysates; from tissue; host or cells: human platelets (outdated platelet packs from a blood bank)
T1 sequence (P16109 42-830): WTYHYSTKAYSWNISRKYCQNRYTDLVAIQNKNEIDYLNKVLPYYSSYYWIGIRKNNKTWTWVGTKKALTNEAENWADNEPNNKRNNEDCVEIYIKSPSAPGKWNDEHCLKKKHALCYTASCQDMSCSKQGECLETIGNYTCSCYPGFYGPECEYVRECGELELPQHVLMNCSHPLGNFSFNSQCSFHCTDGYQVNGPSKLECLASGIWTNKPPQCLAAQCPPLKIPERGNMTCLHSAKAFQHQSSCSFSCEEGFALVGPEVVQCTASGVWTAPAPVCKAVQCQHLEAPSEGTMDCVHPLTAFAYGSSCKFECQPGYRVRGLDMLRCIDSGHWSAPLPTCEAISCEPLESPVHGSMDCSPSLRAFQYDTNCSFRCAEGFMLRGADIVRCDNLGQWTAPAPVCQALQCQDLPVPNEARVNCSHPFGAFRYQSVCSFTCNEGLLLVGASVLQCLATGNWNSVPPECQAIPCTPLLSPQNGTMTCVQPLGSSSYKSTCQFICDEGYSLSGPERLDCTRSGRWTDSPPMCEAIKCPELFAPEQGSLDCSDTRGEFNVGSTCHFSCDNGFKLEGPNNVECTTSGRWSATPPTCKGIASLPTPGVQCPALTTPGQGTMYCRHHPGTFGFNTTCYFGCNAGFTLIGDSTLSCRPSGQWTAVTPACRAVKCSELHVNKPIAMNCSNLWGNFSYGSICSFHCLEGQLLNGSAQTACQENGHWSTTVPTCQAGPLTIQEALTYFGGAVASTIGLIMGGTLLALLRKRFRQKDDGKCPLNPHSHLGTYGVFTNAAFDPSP
Briefly: Inhibition of human neutrophil adhesion to purified P-selectin immobilized on plastic wells. It is filed as cell-based. As to conditions: inhibiting the binding of human neutrophils to P-selectin. From the text: Peptides can be screened for their ability to inhibit adhesion to cells, for example, neutrophil adhesion to purified P-selectin immobilized on plastic wells, using the assay described by Geng, et al., Nature 343, 757-760 (1990). Human neutrophils are isolated from heparinized whole blood by density gradient centrifugation on Mono-Poly resolving media, Flow Laboratories. Neutrophil suspensions are greater than 98% pure and greater than 95% viable by trypan blue exclusion. For adhesion assays, neutrophils are suspended at a concentration of 2×10^6 cells/mL in Hanks' balanced salt solution containing 1.26 mM Ca^2+ and 0.81 mM Mg^2+ (HBSS, Gibco) with […] human serum albumin (HBSS/HSA). Adhesion assays are conducted in triplicate in 96-well microliter plates, Corning, incubated at 4° C. overnight with 50 microliters of various protein solutions. P-selectin is isolated from human platelet lysates by immunoaffinity chromatography on antibody S12-Sepharose™ and ion-exchange chromatography on a Mono-Q™ column (FLPC, Pharmacia Fine Chemicals), as follows. Outdated human platelet packs (100 units) obtained from a blood bank and stored at 4° C. are pooled, adjusted to 5 mM EDTA at pH 7.5, centrifuged at 4,000 rpm for 30 minutes in 1 liter bottles, then washed three times with 1 liter of 0.1M NaCl, 20 mM Tris pH 7.5 (TBS), 5 mM EDTA, 5 mM benzamidine. The pellets are then resuspended in a minimum amount of wash buffer and made 1 mM in DIFP, then frozen in 50 mL screwtop tubes at -80° C. The frozen platelets are thawed and resuspended in 50 mL TBS, 5 mM benzamidine, 5 mM EDTA pH 7.5, […]. The suspension is frozen and thawed two times in a dry ice-acetone bath using a 600 mL lyophilizing flask, then homogenized in a glass/teflon mortar and pestle and made 1 mM in DIFP. The NaCl concentration is adjusted to 0.5M with a stock solution of 4M NaCl. After stirring the suspension at 4° C., it is centrifuged in polycarbonate tubes at 33,000 rpm for 60 minutes at 4° C. The supernatant (0.5M NaCl wash) is removed and saved; this supernatant contains the soluble form of P-selectin. Care is taken not to remove the top part of the pellet with the supernatant. The pellets are then homogenized in extraction buffer (TBS, 5 mM benzamidine, 5 mM EDTA, pH 7.5, 100 μM leupeptin, 2% Triton X-100). After centrifugation at 19,500 rpm for 25 minutes at 4° C., the supernatant is removed. The extraction procedure is repeated with the pellet and the supernatant is combined with the first supernatant. The combined extracts, which contain the membrane form of P-selectin, are adjusted to 0.5M NaCl. The soluble fraction (0.5M NaCl wash) and the membrane extract (also adjusted to 0.5M NaCl) are absorbed with separate pools of the monoclonal antibody S12 (directed to P-selectin) previously couple […]) at 5 mg/mL for 2 hours at 4° C. After letting the resins settle, the supernatants are removed. The S12 Affigel containing bound GMP-140 is then loaded into a column and washed overnight at 4° C. with 400 mL of 0.5M NaCl, 20 mM Tris pH 7.5, 0.01% Lubrol PX. Bound P-selectin is eluted from the S12 Affigel with 100 mL of 80% ethylene glycol, 1 mM MES pH 6.0, 0.01% Lubrol PX. Peak fractions with absorbance at 280 nm are pooled. Eluates are dialyzed against TBS with 0.05% Lubrol, then applied to a Mono Q column (FPLC from Pharmacia). The concentrated protein is step eluted with 2M NaCl, 20 mM Tris pH 7.5 (plus 0.05% Lubrol PX for the membrane fraction). Peak fractions are dialyzed into TBS pH 7.5 (plus 0.05% Lubrol PX for the membrane fraction). P-selectin is plated at 5 micrograms/mL and the control proteins: human serum albumin (Alb), platelet glycoprotein IIb/IIIa (IIb), von Willebrand factor (vWF), fibrinogen (FIB), thrombomodulin (TM), gelatin (GEL) or human serum (HS), are added at 50 micrograms/mL. […]
As usually defined, the IC50 is the concentration that inhibits the measured activity by half. Lower therefore signals greater potency. `CC[C@H](C)[C@@H]1NC(=O)[C@H](CCCCN)NC(=O)[C@@H](N)CCCCNC(=O)CC[C@@H](C(=O)N[C@@H](Cc2c[nH]c3ccccc23)C(=O)N[C@H](C(=O)N[C@@H](Cc2c[nH]c3ccccc23)C(=O)N[C@H](C(N)=O)C(C)C)[C@@H](C)O)NC(=O)CNC(=O)CNC1=O` [(2)] (H-KKIGGEWTWV-NH2; lactam 1-6) came in with an IC50 of 69 µM.
The value for `CC[C@H](C)[C@@H]1NC(=O)CNC(=O)CNC(=O)[C@H]([C@@H](C)CC)NC(=O)[C@H](CCCCN)NC(=O)[C@@H](N)CSSC[C@@H](C(N)=O)NC(=O)[C@H](Cc2c[nH]c3ccccc23)NC(=O)[C@H]([C@@H](C)O)NC(=O)[C@H](Cc2c[nH]c3ccccc23)NC1=O` [(3)] (H-CKIGGIWTWC-NH2; disulfide 1-10) was 131 µM; that for `CC[C@H](C)[C@@H]1NC(=O)[C@@H](NC(=O)[C@@H](N)CCCNC(=N)N)CSSC[C@@H](C(=O)N[C@@H](Cc2c[nH]c3ccccc23)C(=O)N[C@H](C(=O)N[C@@H](Cc2c[nH]c3ccccc23)C(=O)N[C@H](C(N)=O)C(C)C)[C@@H](C)O)NC(=O)CNC(=O)CNC1=O` [(5)] (H-RCIGGCWTWV-NH2; disulfide 2-6) was 36 µM; that for `CC(C)[C@H](NC(=O)[C@H](Cc1c[nH]c2ccccc12)NC(=O)[C@@H](NC(=O)[C@H](Cc1c[nH]c2ccccc12)NC(=O)[C@@H]1CSSC[C@H](N)C(=O)N[C@@H](CCCNC(=N)N)C(=O)NCC(=O)NCC(=O)N1)[C@@H](C)O)C(N)=O` [(6)] (H-CRGGCWTWV-NH2; disulfide 1-5) was 54 µM.
The value for `C[C@@H](O)[C@H](NC(=O)[C@H](Cc1c[nH]c2ccccc12)NC(=O)[C@@H]1CSSC[C@H](NC(=O)[C@H](CCCCN)NC(=O)[C@@H](N)CCCNC(=N)N)C(=O)NCC(=O)NCC(=O)N1)C(=O)N[C@@H](Cc1c[nH]c2ccccc12)C(N)=O` [(7)] (H-RKCGGCWTW-NH2; disulfide 3-6) was 610 µM; that for `C[C@H](O)[C@@H](NC(=O)[C@@H](Cc1c[nH]c2ccccc12)NC(=O)[C@H]1CSSC[C@@H](NC(=O)[C@@H](CCCCN)NC(=O)[C@H](N)CCCNC(=N)N)C(=O)NCC(=O)NCC(=O)N1)C(=O)N[C@H](Cc1c[nH]c2ccccc12)C(N)=O` [(8)] (H-[dR][dK][dC]GG[dC][dW][dT][dW]-NH2; disulfide 3-6) was 97 µM.
Turning to `CC(C)[C@H](NC(=O)[C@H](Cc1c[nH]c2ccccc12)NC(=O)[C@@H](NC(=O)[C@H](Cc1c[nH]c2ccccc12)NC(=O)[C@@H]1NC(=O)CNC(=O)CNC(=O)[C@@H](NC(=O)[C@H](CCCCN)NC(=O)[C@@H](N)CCCNC(=N)N)CSSC1(C)C)[C@@H](C)O)C(N)=O` [(10)] (H-RKCGG[dPen]WTWV-NH2; disulfide 3-6), the IC50 was found to be 30 µM.
The value for `CC(C)[C@@H](NC(=O)[C@@H](Cc1c[nH]c2ccccc12)NC(=O)[C@H](NC(=O)[C@@H](Cc1ccccc1)NC(=O)[C@H]1CSSC[C@@H](NC(=O)[C@@H](CCCCN)NC(=O)[C@H](N)CCCNC(=N)N)C(=O)NCC(=O)NCC(=O)N1)[C@H](C)O)C(N)=O` [(14)] (H-[dR][dK][dC]GG[dC][dF][dT][dW][dV]-NH2; disulfide 3-6) was 40 µM.
Under `CC(C)[C@@H](NC(=O)[C@@H](Cc1c[nH]c2ccccc12)NC(=O)[C@H](NC(=O)[C@@H](Cc1c[nH]c2ccccc12)NC(=O)[C@H]1CSSC[C@@H](NC(=O)[C@@H](CCCCN)NC(=O)[C@H](N)CCCNC(=N)N)C(=O)N2CCC[C@@H]2C(=O)NCC(=O)N1)[C@H](C)O)C(N)=O` [(15)] (H-[dR][dK][dC][dP]G[dC][dW][dT][dW][dV]-NH2; disulfide 3-6) stands 485 µM.
On to `CC(C)[C@@H](NC(=O)[C@@H](Cc1c[nH]c2ccccc12)NC(=O)[C@H](NC(=O)[C@@H](Cc1c[nH]c2ccccc12)NC(=O)[C@H]1CSSC[C@@H](NC(=O)[C@@H](CCCCN)NC(=O)[C@H](N)CCCNC(=N)N)C(=O)NCC(=O)N2CCC[C@@H]2C(=O)N1)[C@H](C)O)C(N)=O` [(16)] (H-[dR][dK][dC]G[dP][dC][dW][dT][dW][dV]-NH2; disulfide 3-6), for which the IC50 worked out at 1 µM.
As to `CC(C)[C@@H](NC(=O)[C@@H](Cc1c[nH]c2ccccc12)NC(=O)[C@@H](CCC(N)=O)NC(=O)[C@H](NC(=O)[C@@H](Cc1c[nH]c2ccccc12)NC(=O)[C@H]1CSSC[C@@H](NC(=O)[C@@H](CCCCN)NC(=O)[C@H](N)CCCNC(=N)N)C(=O)NCC(=O)NCC(=O)N1)[C@H](C)O)C(N)=O` [(17)] (H-[dR][dK][dC]GG[dC][dW][dT][dQ][dW][dV]-NH2; disulfide 3-6), the IC50 was 225 µM.
In the case of `CC(C)[C@H](NC(=O)[C@H](Cc1c[nH]c2ccccc12)NC(=O)[C@@H](NC(=O)[C@H](Cc1c[nH]c2ccccc12)NC(=O)[C@@H]1CC(=O)NC[C@H](NC(=O)[C@H](CCCCN)NC(=O)[C@@H](N)CCCNC(=N)N)C(=O)NCC(=O)NCC(=O)N1)[C@@H](C)O)C(N)=O` [(22)] (H-RK[Dap]GGDWTWV-NH2; lactam 3-6), the half-inhibitory concentration (IC50) came out at 13 µM.
`CC(C)[C@H](NC(=O)[C@H](Cc1c[nH]c2ccccc12)NC(=O)[C@@H](NC(=O)[C@H](Cc1c[nH]c2ccccc12)NC(=O)[C@@H]1CSSC(C)(C)[C@@H](NC(=O)[C@H](CCCCN)NC(=O)[C@@H](N)CCCNC(=N)N)C(=O)NCC(=O)NCC(=O)N1)[C@@H](C)O)C(N)=O` [(23)] (H-RK[dPen]GGCWTWV-NH2; disulfide 3-6): the IC50 stood at 36 µM.
`CC(C)[C@H](NC(=O)[C@H](Cc1c[nH]c2ccccc12)NC(=O)[C@@H](NC(=O)[C@H](Cc1c[nH]c2ccccc12)NC(=O)[C@@H]1NC(=O)CNC(=O)CNC(=O)[C@H](NC(=O)[C@H](CCCCN)NC(=O)[C@@H](N)CCCNC(=N)N)C(C)(C)SSC1(C)C)[C@@H](C)O)C(N)=O` [(24)] (H-RK[dPen]GG[dPen]WTWV-NH2; disulfide 3-6) yielded a concentration for half-maximal inhibition (IC50) of 41 µM.
The molecule `CC(C)[C@@H](NC(=O)[C@@H](Cc1c[nH]c2ccccc12)NC(=O)[C@H](NC(=O)[C@@H](Cc1c[nH]c2ccccc12)NC(=O)[C@H]1CSSC[C@@H](NC(=O)[C@H](N)CCCCN)C(=O)NCC(=O)NCC(=O)N1)[C@H](C)O)C(N)=O` [(26)] (H-[dK][dC]GG[dC][dW][dT][dW][dV]-NH2; disulfide 2-5) gave a half-maximal inhibitory concentration (IC50) of 26 µM.
